Like-named read-outs stand apart in the source and are kept apart here.
Experiments:
[1] = target: T1, BaF3 cell line transfected with the oncogenic fusion protein NPM-ALK and expressing the mutation L1196M (Homo sapiens, UniProt Q9UM73, L1196M, cells depend on it); assay: Tritiated thymidine uptake cell proliferation assay, BaF3 NPM-ALK L1196M; format: cell-based, murine; settings: for GI50: averaged IC50 values of cell proliferation inhibition, class letters, read-out: IC50 BaF3 NPM-ALK L1196M cells; for % Inhibition BaF3 NPM-ALK L1196M cells: percentage of inhibition of cell proliferation at 200 nM
T1 construct: fused on or other part: P06748 (Nucleophosmin)
T1 sequence (Q9UM73 whole entry L1196M, the tested form may be a part): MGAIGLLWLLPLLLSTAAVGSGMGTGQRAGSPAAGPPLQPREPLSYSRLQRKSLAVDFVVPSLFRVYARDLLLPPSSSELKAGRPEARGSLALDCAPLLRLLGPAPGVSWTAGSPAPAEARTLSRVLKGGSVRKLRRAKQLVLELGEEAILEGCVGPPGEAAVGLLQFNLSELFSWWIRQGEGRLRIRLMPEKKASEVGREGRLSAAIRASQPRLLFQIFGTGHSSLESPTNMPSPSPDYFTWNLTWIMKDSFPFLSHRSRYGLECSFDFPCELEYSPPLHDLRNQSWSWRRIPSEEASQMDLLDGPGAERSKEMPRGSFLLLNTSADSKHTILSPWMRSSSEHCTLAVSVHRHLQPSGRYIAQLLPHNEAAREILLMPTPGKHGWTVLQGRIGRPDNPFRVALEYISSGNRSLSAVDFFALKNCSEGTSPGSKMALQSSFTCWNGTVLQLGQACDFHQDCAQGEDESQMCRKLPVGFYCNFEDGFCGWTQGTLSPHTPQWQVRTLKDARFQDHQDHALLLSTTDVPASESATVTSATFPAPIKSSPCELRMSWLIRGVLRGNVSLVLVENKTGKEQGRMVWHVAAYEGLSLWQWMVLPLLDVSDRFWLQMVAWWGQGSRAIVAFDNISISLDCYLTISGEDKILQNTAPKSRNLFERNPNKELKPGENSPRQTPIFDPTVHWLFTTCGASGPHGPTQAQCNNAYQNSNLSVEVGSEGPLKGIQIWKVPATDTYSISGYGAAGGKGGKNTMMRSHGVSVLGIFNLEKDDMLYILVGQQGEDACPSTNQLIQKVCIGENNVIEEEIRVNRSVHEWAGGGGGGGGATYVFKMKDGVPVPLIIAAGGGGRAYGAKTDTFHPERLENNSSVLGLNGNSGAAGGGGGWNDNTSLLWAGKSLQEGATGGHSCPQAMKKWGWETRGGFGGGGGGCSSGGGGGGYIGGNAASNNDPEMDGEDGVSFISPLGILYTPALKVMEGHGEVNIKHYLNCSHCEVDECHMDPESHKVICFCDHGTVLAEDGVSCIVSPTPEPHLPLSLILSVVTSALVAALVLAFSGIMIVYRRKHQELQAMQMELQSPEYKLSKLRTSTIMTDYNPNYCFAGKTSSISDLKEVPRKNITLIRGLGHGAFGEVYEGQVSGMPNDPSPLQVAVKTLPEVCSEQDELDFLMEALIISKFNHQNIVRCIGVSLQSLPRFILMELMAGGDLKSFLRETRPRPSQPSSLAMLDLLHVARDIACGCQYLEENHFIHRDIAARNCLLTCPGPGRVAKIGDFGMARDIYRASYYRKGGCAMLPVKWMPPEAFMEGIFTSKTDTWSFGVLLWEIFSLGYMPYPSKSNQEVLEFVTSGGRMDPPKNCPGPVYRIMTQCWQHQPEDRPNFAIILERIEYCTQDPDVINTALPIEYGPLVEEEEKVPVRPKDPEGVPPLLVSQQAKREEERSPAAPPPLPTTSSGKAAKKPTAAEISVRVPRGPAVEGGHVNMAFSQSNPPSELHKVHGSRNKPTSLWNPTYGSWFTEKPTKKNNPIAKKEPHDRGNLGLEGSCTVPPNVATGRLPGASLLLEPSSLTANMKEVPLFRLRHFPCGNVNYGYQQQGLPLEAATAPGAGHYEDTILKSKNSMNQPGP
Method: (§1) Method: Tritiated Thymidine Uptake Cell Proliferation Assay
(§2) The following procedure was used with parent untransformed BaF3 cells, BaF3 cells transformed with the oncogenic fusion protein NPM/ALK, NPM/ALK positive SUDHL-1 cells, NPM/ALK positive SUPM2, ALK-negative HL60 cells, NPM/ALK positive KARPAS-299 cells. The parent untransformed BaF3 cells or Alk-negative HL60 cells are used as controls. Cells were seeded in U-bottomed 96-well plates at 10000 cells/well in a volume of 100 μl in supplemented medium. In the case of the parent untransformed BaF3 cells, the medium was supplemented with IL-3. Serial dilutions of inhibitors were added to the appropriate wells and volumes adjusted to 200 μl. Controls were treated with the equivalent volume of vehicle, DMSO, alone. Plates were incubated at 37° C. for 72 h. 3[H]-thymidine (1 μCi/well) was added for the last 16 h of incubation. Cells were harvested on to paper filters and 3[H]-thymidine incorporation was measured using a scintillation counter (1430 MicroBeta, Wallac, Turku, Finland). The 50% inhibitory concentration (IC50) was defined as the concentration of inhibitor, expressed in nanomolar units, that gave a 50% decrease in 3[H]-thymidine uptake compared with controls.
In Table 2 are listed results for selected examples of compounds of the invention, reported as percentage of inhibition of cell proliferation at 200 nM, obtained from cellular assays in BaF3 cell line transfected with the oncogenic fusion protein NPM-ALK and expressing the mutation L1196M.
In Table 3 are listed averaged IC50 values of cell proliferation inhibition for selected examples of compounds of the present invention, obtained from cellular assays in BaF3 cell line transfected with the oncogenic fusion protein NPM-ALK and expressing the mutation L1196M. The letter “A” designates an IC50 value between 1 nM and 50 nM, the letter “B” designates an IC50 value between 50 nM and 100 nM, the letter “C” designates an IC50 value between 100 and 500 nM.

[2] = test system: Karpas 299 lymphoma cell line positive for the oncogenic fusion protein NPM-ALK; assay: Tritiated thymidine uptake cell proliferation assay, Karpas 299; format: cell-based; settings: Homo sapiens
Method: as §1, §2
In Table 1 are listed results for selected examples of compounds of the invention, reported as percentage of inhibition of cell proliferation at 200 nM, obtained from cellular assays in Karpas 299 lymphoma cell line positive for the oncogenic fusion protein NPM-ALK.

[3] = KARPAS-299, percentage of inhibition of cell proliferation at 200 nM, read-out: % Inhibition Karpas 299 cells

| SMILES | GI50 [1] | % Inhibition BaF3 NPM-ALK L1196M cells [1] | inhibition at 0.2 µM [2, 3] | inhibition at 0.2 µM ([2]; KARPAS-299, read-out: % Inhibition Karpas 299 cells) |
| --- | --- | --- | --- | --- |
| CN1CCN(c2ccc(C(=O)Nc3n[nH]c4cc(-c5cc(O)cc(F)c5)c(Cc5cc(F)cc(F)c5)cc34)c(NC3CCOCC3)c2)CC1 [Example 19, N-[5-[(3,5-difluorophenyl)methyl]-6-(3-fluoro-5-hydroxy-phenyl)-1H-indazol-3-yl]-4-(4-methylpiperazin-1-yl)-2-(tetrahydropyran-4-ylamino)benzamide] | 50 to 100 nM | 100% | 99% | – |
| CN1CCN(c2ccc(C(=O)Nc3n[nH]c4cc(-c5ccc(O)cc5)c(Cc5cc(F)cc(F)c5)cc34)cc2)CC1 [Example 33, N-[5-[(3,5-difluorophenyl)methyl]-6-(4-hydroxyphenyl)-1H-indazol-3-yl]-4-(4-methylpiperazin-1-yl)benzamide] | 1 to 50 nM | 99% | – | 100% |
| CN1CCN(c2ccc(C(=O)Nc3n[nH]c4cc(-c5ccc(O)c(F)c5)c(Cc5cc(F)cc(F)c5)cc34)c(NC3CCOCC3)c2)CC1 [Example 25, N-[5-[(3,5-difluorophenyl)methyl]-6-(3-fluoro-4-hydroxy-phenyl)-1H-indazol-3-yl]-4-(4-methylpiperazin-1-yl)-2-(tetrahydropyran-4-ylamino)benzamide] | 1 to 50 nM | 100% | 100% | – |
| CN1CCN(c2ccc(C(=O)Nc3n[nH]c4cc(-c5cncc(N)c5)c(Cc5cc(F)cc(F)c5)cc34)c(NC3CCOCC3)c2)CC1 [Example 12, N-[6-(5-amino-3-pyridyl)-5-[(3,5-difluorophenyl)methyl]-1H-indazol-3-yl]-4-(4-methylpiperazin-1-yl)-2-(tetrahydropyran-4-ylamino)benzamide] | 50 to 100 nM | 99% | 100% | – |
| CN1CCN(c2ccc(C(=O)Nc3n[nH]c4cc(-c5ccc6[nH]ncc6c5)c(Cc5cc(F)cc(F)c5)cc34)cc2)CC1 [Example 35, N-[5-[(3,5-difluorophenyl)methyl]-6-(1H-indazol-5-yl)-1H-indazol-3-yl]-4-(4-methylpiperazin-1-yl)benzamide] | 50 to 100 nM | 96% | 100% | – |
| CN1CCN(c2ccc(C(=O)Nc3n[nH]c4cc(-c5cnc(N)nc5)c(Cc5cc(F)cc(F)c5)cc34)c(NC3CCOCC3)c2)CC1 [Example 10, N-[6-(2-aminopyrimidin-5-yl)-5-[(3,5-difluorophenyl)methyl]-1H-indazol-3-yl]-4-(4-methylpiperazin-1-yl)-2-(tetrahydropyran-4-ylamino)benzamide] | – | 61% | 93% | – |
| CN1CCN(c2ccc(C(=O)Nc3n[nH]c4cc(-c5ccccc5)c(Cc5cc(F)cc(F)c5)cc34)c(NC3CCOCC3)c2)CC1 [Example 23, N-[5-[(3,5-difluorophenyl)methyl]-6-phenyl-1H-indazol-3-yl]-4-(4-methylpiperazin-1-yl)-2-(tetrahydropyran-4-ylamino)benzamide] | – | 61% | 71% | – |
| CN1CCN(c2ccc(C(=O)Nc3n[nH]c4cc(-c5cn[nH]c5)c(Cc5cc(F)cc(F)c5)cc34)c(NC3CCOCC3)c2)CC1 [Example 18, N-[5-[(3,5-difluorophenyl)methyl]-6-(1H-pyrazol-4-yl)-1H-indazol-3-yl]-4-(4-methylpiperazin-1-yl)-2-(tetrahydropyran-4-ylamino)benzamide] | 100 to 500 nM | 97% | 100% | – |
| Cc1cc(N)ncc1-c1cc2[nH]nc(NC(=O)c3ccc(N4CCN(C)CC4)cc3NC3CCOCC3)c2cc1Cc1cc(F)cc(F)c1 [Example 14, N-[6-(6-amino-4-methyl-3-pyridyl)-5-[(3,5-difluorophenyl)methyl]-1H-indazol-3-yl]-4-(4-methylpiperazin-1-yl)-2-(tetrahydropyran-4-ylamino)benzamide] | – | 66% | 62% | – |
| CN1CCN(c2ccc(C(=O)Nc3n[nH]c4cc(-c5cnn(C(C)(C)CO)c5)c(Cc5cc(F)cc(F)c5)cc34)c(NC3CCOCC3)c2)CC1 [Example 15, N-[5-[(3,5-difluorophenyl)methyl]-6-[1-(2-hydroxy-1,1-dimethyl-ethyl)pyrazol-4-yl]-1H-indazol-3-yl]-4-(4-methylpiperazin-1-yl)-2-(tetrahydropyran-4-ylamino)benzamide] | 50 to 100 nM | 100% | 100% | – |
| CN1CCN(c2ccc(C(=O)Nc3n[nH]c4cc(-c5cc(O)ccc5F)c(Cc5cc(F)cc(F)c5)cc34)c(NC3CCOCC3)c2)CC1 [Example 8, N-[5-[(3,5-difluorophenyl)methyl]-6-(2-fluoro-5-hydroxy-phenyl)-1H-indazol-3-yl]-4-(4-methylpiperazin-1-yl)-2-(tetrahydropyran-4-ylamino)benzamide] | 1 to 50 nM | 99% | 99% | – |
| CN1CCN(c2ccc(C(=O)Nc3n[nH]c4cc(-c5ccc(O)cc5F)c(Cc5cc(F)cc(F)c5)cc34)c(NC3CCOCC3)c2)CC1 [Example 6, N-[5-[(3,5-difluorophenyl)methyl]-6-(2-fluoro-4-hydroxy-phenyl)-1H-indazol-3-yl]-4-(4-methylpiperazin-1-yl)-2-(tetrahydropyran-4-ylamino)benzamide] | 1 to 50 nM | 100% | 100% | – |
| Cc1ccc(O)cc1-c1cc2[nH]nc(NC(=O)c3ccc(N4CCN(C)CC4)cc3NC3CCOCC3)c2cc1Cc1cc(F)cc(F)c1 [Example 7, N-[5-[(3,5-difluorophenyl)methyl]-6-(5-hydroxy-2-methyl-phenyl)-1H-indazol-3-yl]-4-(4-methylpiperazin-1-yl)-2-(tetrahydropyran-4-ylamino)benzamide] | 1 to 50 nM | 100% | 93% | – |

From US10336707B2, “Heterocyclic derivatives modulating activity of certain protein kinases” (EUDENDRON S.R.L., priority 2014, dated 2019)
